Row | SMILES | melting point
1 | COc1cc2[nH]c(N(C)Cc3cccc(-n4ccc(C)n4)c3)nc(=O)c2c(C)c1OC [Example 233, 6,7-Dimethoxy-5-methyl-2-{methyl-[3-(3-methyl-pyrazol-1-yl)-benzyl]-amino}-1H-quinazolin-4-one] | 220 to 223.5 °C
2 | COc1cc2[nH]c(N(C)Cc3ccc(C4=NCCN4C)cc3)nc(=O)c2c(C)c1OC [Example 237, 6,7-Dimethoxy-5-methyl-2-{methyl[4-(1-methyl-,5-dihydro-1H-imidazol-2-yl)-benzyl]-amino}-1H-quinazolin-4-oine] | 179 to 181 °C
3 | COc1cc2[nH]c(N(C)Cc3cccc(C4=NCCN4CCO)c3)nc(=O)c2c(C)c1OC [Example 244, 2-({3-[1-(2-Hydroxy-ethyl)-4,5-dihydro-1H-imidazol-2-yl]-benzyl}-methyl-amino)-6,7-dimethoxy-5-methyl-1H-quinazolin-4-one] | 253 to 254.9 °C
4 | COCCN1CCN=C1c1cccc(CN(C)c2nc(=O)c3c(C)c(OC)c(OC)cc3[nH]2)c1 [Example 246, 6,7-Dimethoxy-2-*{3-[1-(2-methoxy-ethyl)-4,5-dihydro-1H-imidazol-2-yl]-benzyl}-methyla-mino)-5-methyl-1H-quinazolin-4-one] | 161 to 164.4 °C
5 | COc1cc2[nH]c(N(C)Cc3cccc(-c4ncc[nH]4)c3)nc(=O)c2c(C)c1OC [Example 248, 2-{[3-(1H-Imidazol-2-yl)-benzyl]-methyl-amino}-6,7-dimethoxy-5-methyl-1H-quinazolin-4-one] | 255.5 to 258.9 °C
6 | COc1cc2[nH]c(N(C)Cc3cccc(-c4nccn4C)c3)nc(=O)c2c(C)c1OC [Example 249, 6,7-Dimethoxy-5-methyl-2-{methyl-[3-(1-methyl-`1H-imidazol-2-yl)-benzyl]-amino}-1H-quinazolin-4-one] | 179 to 182.1 °C
7 | COc1cc2[nH]c(N(C)Cc3cccc(N4CCCS4(=O)=O)c3)nc(=O)c2c(C)c1OC [Example 252, 2-{[3-(1,1-Dioxo-1λ6-isothiazolidin-2-yl)-benzyl]-methyl-amino}-6,7-dimethoxy-5-methyl-1H-quinazolin-4-one] | 226 to 228.5 °C
8 | COc1cc2[nH]c(N(C)Cc3cccc(N4CCCS4(=O)=O)c3)nc(=O)c2c(OC)c1OC [Example 253, {[3-(1,1-Dioxo-1λ6-isothiazolidin-2-yl)-benzyl]-methyl-amino}-5,6,7-trimethoxy-1H-quinazolin-4-one] | 181.1 to 183.5 °C
9 | COc1cc2[nH]c(N(C)Cc3cccc(N4CCOC4=O)c3)nc(=O)c2c(C)c1OC [Example 254, 6,7-Dimethoxy-5-methyl-2-{methyl-[3-(2-oxo-oxazolidin-3-yl)-benzyl]-amino}-1H-quinazolin-4-one] | 254.8 to 257.1 °C
10 | COc1cc2[nH]c(N(C)Cc3cccc(N4CCOC4=O)c3)nc(=O)c2c(OC)c1OC [Example 255, 5,6,7-ZTrimethoxy-2-{methyl[3-(2-oxo-oxazolidin-3-yl)-benzyl]-amino}-1H-quinazolin-4-one] | 226 to 229.5 °C
11 | COc1cc2[nH]c(N(C)Cc3cccc(N4CCC(C)C4=O)c3)nc(=O)c2c(C)c1OC (centres unmarked) [Example 256, 6,7-Dimethoxy-5-methyl-2-{methyl-[3-(3-methyl-2-oxo-pyrrolidin-1-yl)-benzyl]-amino}-1H-quinazolin-4-one] | 210.8 to 211.6 °C
12 | CCC1CCN(c2cccc(CN(C)c3nc(=O)c4c(C)c(OC)c(OC)cc4[nH]3)c2)C1=O (centres unmarked) [Example 257, 2-{[3-(3-Ethyl-2-oxo-pyrrolidin-1-yl)-benzyl]-methyl-amino}-6,7-dimethoxy-5-methyl-1H-quinazolin-4-one] | 200.1 to 202.1 °C
13 | COc1cc2[nH]c(N(C)Cc3cccc(N4C(=O)CCC4=O)c3)nc(=O)c2c(C)c1OC [Example 259] | 198.6 to 199.8 °C
14 | COc1cc2[nH]c(N(C)Cc3cccc(N4C(=O)CCC4=O)c3)nc(=O)c2c(OC)c1OC [Example 260, 1-(3-{[Methyl-(5,6,7-trimethoxy-4-oxo-1,4-dihydro-quinazolin-2-yl)-amino]-methyl}-phenyl)-pyrrolidine-2,5-dione] | 125.5 to 128.5 °C
15 | COc1cc2[nH]c(N(C)Cc3cccc(N4CCNC4=O)c3)nc(=O)c2c(OC)c1OC [Example 261, 5,6,7-Trimethoxy-2-{methyl[3-(2-oxo-imidazolidin-1-yl)-benzyl]-amino}-1H-quinazolin-4-one] | 130 to 133 °C
16 | COc1cc2[nH]c(N(C)Cc3cccc(N4CCN(C)C4=O)c3)nc(=O)c2c(C)c1OC [Example 262, 6,7-Dimethoxy-5-methyl-2-{methyl-[3-(3-methyl-2-oxo-imidazolidin-1-yl)-benzyl]-amino}-1H-quinazolin-4-one] | 230 to 230.5 °C
17 | COc1cc2[nH]c(N(C)Cc3cccc(N4CCN(C)C4=O)c3)nc(=O)c2c(OC)c1OC [Example 263, 5,6,7-Trimethoxy-2-{methyl-[3-(3-methyl-2-oxo-imidazolidin-1-yl)-benzyl]-amino}-1H-quinaozlin-4-one] | 205.4 to 207.8 °C
18 | CCN1CCN(c2cccc(CN(C)c3nc(=O)c4c(C)c(OC)c(OC)cc4[nH]3)c2)C1=O [Example 264, 2-{[3-(3-Ethyl-2-oxo-imidazolidin-1-yl)-benzyl]-methyl-amino}-6,7-dimethoxy-5-methyl-1H-quinaozlin-4-one] | 201.4 to 207.4 °C
19 | CCN1CCN(c2cccc(CN(C)c3nc(=O)c4c(OC)c(OC)c(OC)cc4[nH]3)c2)C1=O [Example 265, 2-{[3-(3-Ethyl-2-oxo-imidazolidin-1-yl)-benzyl]-methyl-amino}-5,6,7-trimethoxy-1H-quinaozlin-4-one] | 200.3 to 200.9 °C
20 | COCCN1CCN(c2cccc(CN(C)c3nc(=O)c4c(OC)c(OC)c(OC)cc4[nH]3)c2)C1=O [Example 266, 5,6,7-Trimethoxy-2-({3-[3-(2-methoxy-ethyl)-2-oxo-imidazllidin-1-yl]-benzyl}-methyl-amino)-1H-quinazolin-4-one] | 199.5 to 202.1 °C
21 | COc1cc2[nH]c(N(C)Cc3cccc(C(C)N4CCCC4)n3)nc(=O)c2c(C)c1OC (centres unmarked) [Example 275, 6,7-Dimethoxy-5-methyl-2-{methyl-[6-(1-pyrrolidin-1-yl-ethyl)-pyridin-2-ylmethyl]-amino}-1H-quinazolin-4-one] | 75.4 to 85.6 °C
22 | COc1cc2[nH]c(N(C)Cc3cccc(C(C)N4CCC4)n3)nc(=O)c2c(OC)c1OC (centres unmarked) [Example 278, 2-{[6-(1-Aztidin-1-yl-ethyl)-pyridin-2-ylmethyl]-methyl-amino}-5,6,7-trimethoxy-1H-quinazolin-4-one] | 70.8 to 78.8 °C
23 | COc1cc2[nH]c(N(C)Cc3cccc(C(C)N(C)S(C)(=O)=O)c3)nc(=O)c2c(OC)c1OC (centres unmarked) [Example 292, N-Methyl-N-[1-(3-{[methyl-(5,6,7-trimethoxy-4-oxo-1,4-dihydro-quinazolin-2-yl)-amino]-methyl}-phenyl)-ethyl]-methanesulfonamide] | 171 to 172.4 °C
24 | COc1cc2[nH]c(N(C)Cc3cccc(C(C)N(C)C(=O)N(C)C)c3)nc(=O)c2c(OC)c1OC (centres unmarked) [Example 293] | 68 to 70 °C
25 | COCCOC(=O)N(C)Cc1cccc(CN(C)c2nc(=O)c3c(C)c(OC)c(OC)cc3[nH]2)c1 [Example 294, (3-{[(6,7-Dimethoxy-5-methyl-4-oxo-1,4-dihydro-quinazolin-2-yl)-methyl-amino]-methyl}-benzyl)-methyl-carbamic acid 2-methoxy-ethyl ester] | 145.8 to 146.9 °C

Continued, values first:

Row | melting point | SMILES
26 | 168 to 170.5 °C | COc1cc2[nH]c(N(Cc3ccccc3)C(C)C)nc(=O)c2cc1OC [Example A-7, 2-(Benzyl-isopropyl-amino)-6,7-dimethoxy-1H-quinazolin-4-one]
27 | 240 to 244 °C | COc1cc2[nH]c(N(C)Cc3cccc(N4C=NC(C)(C)C4)c3)nc(=O)c2cc1OC [Example A-12, 2-{[3-(4,4-Dimethyl-4,5-dihydro-imidazol-1-yl)-benzyl]-methyl-amino}-6,7-dimethoxy-1H-quinazolin-4-one]
28 | 268 to 269.5 °C | COc1cc2[nH]c(N(C)Cc3cccc(N)c3)nc(=O)c2c(C)c1OC [Example B-1, 2-[(3-Amino-benzyl)-methyl-amino]-6,7-dimethoxy-5-methyl-1H-quinazolin-4-one]
29 | 179 to 181.3 °C | CNCc1cccc(CN(C)c2nc3cc(OC)c(OC)c(C)c3c(=O)[nH]2)c1 [Example C-1, 6,7-Dimethoxy-5-methyl-2-[methyl-(3-methylaminomethyl-benzyl)-amino]-1H-quinazolin-4-one]
30 | 146 to 147.5 °C | COc1cc2nc(N(C)Cc3cccc(OCCO)c3)[nH]c(=O)c2c(OC)c1OC [Example F-1, 2-{[3-(2-Hydroxy-ethoxy)-benzyl]-methyl-amino}-5,6,7-trimethoxy-1H-quinazolin-4-one]
31 | 191 to 193.5 °C | COc1cc2nc(N(C)Cc3cccc(OC[S+](C)[O-])c3)[nH]c(=O)c2c(C)c1OC (centres unmarked) [Example F-2, 2-[(3-Methanesulfinylmethoxy-benzyl)-methyl-amino]-6,7-dimethoxy-5-methyl-1H-quinazolin-4-one]
32 | 183.9 to 185.4 °C | COc1cc2[nH]c(N(C)Cc3cccc(OCS(C)(=O)=O)c3)nc(=O)c2c(OC)c1OC [Example F-6, 2-[(3-Methanesulfonylmethoxy-benzyl)-methyl-amino]-5,6,7-trimethoxy-1H-quinazolin-4-one]
33 | 180.5 to 183.1 °C | COc1cc2[nH]c(N(C)Cc3cccc(OCCO)c3)nc(=O)c2c(C)c1OC [Example F-9, 2-{[3-(2-Hydroxy-ethoxy)-benzyl]-methyl-amino}-6,7-dimethoxy-5-methyl-1H-quinazolin-4-one]
34 | 144.8 to 145.9 °C | COCCOc1cccc(CN(C)c2nc(=O)c3c(C)c(OC)c(OC)cc3[nH]2)c1 [Example F-10, 6,7-Dimethoxy-2-{[3-(2-methoxy-ethoxy)-benzyl]-methyl-amino}-5-methyl-1H-quinazolin-4-one]
35 | 144.8 to 145.9 °C | COCCOc1cccc(CN(C)c2nc(=O)c3c(OC)c(OC)c(OC)cc3[nH]2)c1 [Example F-11, 5,6,7-Trimethoxy-2-{[3-(2-methoxy-ethoxy)-benzyl]-methyl-amino}-1H-quinazolin-4-one]

— US7244738B2, “Arylamine-substituted quinazolinone compounds useful as alpha 1A/B adrenergic receptor antagonists” (Roche Palo Alto LLC, priority 2003, dated 2007)
